What was measured:
[1] = biological target: T1, α1β3γ2 GABAA receptor (Homo sapiens, UniProt P14867+P18507); settings: recombinant receptors (Cox et al., 1995); cited from earlier work
T1 construct: expressed in transfected cells

[2] = biological target: T2, GABAA α5β3γ2 receptors (Rattus norvegicus, UniProt P18508+P19969); experiment: Xenopus oocyte expression assay, modulation of GABA current; type: cell-based; settings: saturating 1-10 μM modulator with EC50 GABA (30 μM); mean±S.D.
T2 construct: expressed in transfected cells; host or cells: Xenopus laevis oocytes injected with cRNA
T2 sequence (P19969 32-464 limits assumed): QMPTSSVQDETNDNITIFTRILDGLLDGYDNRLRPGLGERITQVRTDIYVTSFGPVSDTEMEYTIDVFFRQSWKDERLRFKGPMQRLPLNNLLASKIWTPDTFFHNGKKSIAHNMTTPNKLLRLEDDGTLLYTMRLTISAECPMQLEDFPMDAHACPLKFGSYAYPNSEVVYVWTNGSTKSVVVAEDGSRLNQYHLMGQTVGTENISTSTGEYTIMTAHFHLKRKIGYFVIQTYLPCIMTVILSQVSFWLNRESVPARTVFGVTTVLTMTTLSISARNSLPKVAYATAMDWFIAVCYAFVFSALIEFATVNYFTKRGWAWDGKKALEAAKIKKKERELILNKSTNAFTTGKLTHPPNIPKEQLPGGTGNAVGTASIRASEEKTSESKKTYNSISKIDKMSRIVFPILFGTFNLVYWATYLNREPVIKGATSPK
T2 sequence (P63079 26-473 partner): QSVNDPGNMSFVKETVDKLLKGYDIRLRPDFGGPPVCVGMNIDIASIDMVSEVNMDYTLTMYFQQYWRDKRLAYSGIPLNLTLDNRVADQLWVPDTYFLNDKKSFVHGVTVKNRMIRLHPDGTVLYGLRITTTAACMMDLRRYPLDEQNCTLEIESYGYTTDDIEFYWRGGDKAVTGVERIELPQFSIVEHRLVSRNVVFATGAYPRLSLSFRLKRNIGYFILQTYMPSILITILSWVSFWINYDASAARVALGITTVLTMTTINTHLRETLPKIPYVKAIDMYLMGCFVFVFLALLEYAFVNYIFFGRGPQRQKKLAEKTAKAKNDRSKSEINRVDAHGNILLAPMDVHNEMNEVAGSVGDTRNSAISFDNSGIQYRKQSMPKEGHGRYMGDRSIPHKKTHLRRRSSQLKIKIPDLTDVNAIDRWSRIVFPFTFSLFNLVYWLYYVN
T2 sequence (P18508 39-466): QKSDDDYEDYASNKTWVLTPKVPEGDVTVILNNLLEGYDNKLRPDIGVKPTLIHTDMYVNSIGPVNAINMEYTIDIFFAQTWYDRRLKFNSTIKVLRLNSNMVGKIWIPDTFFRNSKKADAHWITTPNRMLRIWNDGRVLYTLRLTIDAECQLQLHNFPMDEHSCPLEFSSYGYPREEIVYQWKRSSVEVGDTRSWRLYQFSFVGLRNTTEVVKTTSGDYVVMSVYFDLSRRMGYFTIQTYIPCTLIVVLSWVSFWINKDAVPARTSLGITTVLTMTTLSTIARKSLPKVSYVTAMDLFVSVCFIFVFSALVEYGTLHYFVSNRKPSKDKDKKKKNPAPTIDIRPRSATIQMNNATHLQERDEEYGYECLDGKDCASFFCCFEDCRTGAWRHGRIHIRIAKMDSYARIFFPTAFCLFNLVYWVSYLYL

[3] = system: P rats; type: in vivo, rat
Method: (§1) Rats were placed in the middle of the automated plus maze (Acuscan Electronics, Columbus, Ohio, USA) with two walled and open arms under dim illumination (for details see June et al., 1998b).
(§2) βCCt (5-60 mg/kg i.p.) and chlordiazepoxide (2.5, 5, 10 mg/kg i.p.) were administered 15 and 30 min, respectively, prior to being placed in the plus maze or open field. EtOH (1.25 g/kg) was given 5 min prior to placing the rats in the open field. When βCCt was given in combination with either chlordiazepoxide or EtOH, it was given 10 min prior to chlordiazepoxide and EtOH. As noted above, βCCt was administered in Tween-20 solution, while all other drugs were mixed in sterile saline. Animals were tested between 9am-3 pm.
(§3) HAD-1 asnd P rats were randomly assigned to each of the […] drug treatment groups (Veh, 5, 15, 30, 60 mg/kg). A between group ANOVA with drug treatment as the independent factor was conducted for HAD-1 (n=8-12 per treatment group) [total N=42] and P (n=7-12 per treatment group) [total N=42] rats on the plus-maze test.

[4] = system: HAD-1 rats; type: in vivo, rat
Method: as §1, §2, §3

[5] = system: P rats; type: in vivo, rat; settings: i.p.; chlordiazepoxide 10 mg/kg, βCCt 15 mg/kg; 10 min open field
Method: (§4) Ambulatory count in the open field was recorded individually for 10 min in a plexiglas chamber (42 cm×42 cm 30 cm) using a Digiscan activity monitoring system (Acuscan Electronics, Columbus, Ohio, USA) (for details of the monitoring system see June et al., 1998d).
(§5) βCCt (15 mg/kg i.p.) and chlordiazepoxide (10 mg/kg i.p.) were administered 15 and 30 min, respectively, prior to the rats being placed in the open field. EtOH (1.25 g/kg) was given 5 min prior to placing the rats in the open field. When βCCt was given in combination with either chlordiazepoxide or EtOH, it was given 10 min prior to chlordiazepoxide and EtOH. As noted above, βCCt was administered in Tween-20 solution, while all other drugs were mixed in sterile saline. Animals were tested between 9 am-3 pm.
(§6) Ambulatory count in the open field was recorded individually for 10 min in a plexiglas chamber (42 cm×42 cm 30 cm) using a Digiscan activity monitoring system (Acuscan Electronics, Columbus, Ohio, USA) (for details of the monitoring system see June et al., 1998b).
as §2

[6] = system: HAD-1 rats; type: in vivo, rat; settings: i.p.; chlordiazepoxide 10 mg/kg, βCCt 15 mg/kg; 10 min open field
Method: as §4, §5, §6, §2

[7] = biological target: wild type BDZ receptors (cerebral cortical membranes); experiment: Radioligand displacement at cerebral cortical membranes; type: binding; settings: read-out: Displacement of [3H] flunitrazepam in vitro, IC50; rat cerebral cortical membranes; mean of three or more experiments
Method: [^3H] […] In brief, rats were sacrificed by decapitation, and the cerebral cortex removed. […] Tissue was resuspended in an equal volume of buffer and recentrifuged. This procedure was repeated a total of three times and the tissue resuspended in 50 volumes of buffer. Incubations (1 mL) consisted of tissue (0.3 mL), drug solution (0.1 mL), buffer (0.5 mL) and radioligand (0.1 mL). […] The IC50 values were estimated using Hill plots.

[8] = system: squirrel monkeys; settings: Rowlett et al., unpublished observation; cited from earlier work
[9] = system: GABAA α4β3γ2 receptors; experiment: Xenopus oocyte expression assay, modulation of GABA current; type: cell-based, rat
[10] = Rowlett et al., submitted; cited from earlier work

T1 sequence (P14867 28-456): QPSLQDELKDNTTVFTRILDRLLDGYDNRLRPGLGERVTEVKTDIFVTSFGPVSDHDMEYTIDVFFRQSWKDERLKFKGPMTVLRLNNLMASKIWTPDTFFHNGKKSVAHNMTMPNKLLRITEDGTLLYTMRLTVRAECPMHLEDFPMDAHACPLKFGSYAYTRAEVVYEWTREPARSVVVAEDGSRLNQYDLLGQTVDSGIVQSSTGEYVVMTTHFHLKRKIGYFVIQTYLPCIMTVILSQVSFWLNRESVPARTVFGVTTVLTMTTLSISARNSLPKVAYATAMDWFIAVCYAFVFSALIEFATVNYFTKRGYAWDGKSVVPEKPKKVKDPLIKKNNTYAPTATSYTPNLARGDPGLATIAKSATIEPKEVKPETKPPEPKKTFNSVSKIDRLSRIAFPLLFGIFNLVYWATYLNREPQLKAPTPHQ
T1 sequence (P28472 26-473 partner): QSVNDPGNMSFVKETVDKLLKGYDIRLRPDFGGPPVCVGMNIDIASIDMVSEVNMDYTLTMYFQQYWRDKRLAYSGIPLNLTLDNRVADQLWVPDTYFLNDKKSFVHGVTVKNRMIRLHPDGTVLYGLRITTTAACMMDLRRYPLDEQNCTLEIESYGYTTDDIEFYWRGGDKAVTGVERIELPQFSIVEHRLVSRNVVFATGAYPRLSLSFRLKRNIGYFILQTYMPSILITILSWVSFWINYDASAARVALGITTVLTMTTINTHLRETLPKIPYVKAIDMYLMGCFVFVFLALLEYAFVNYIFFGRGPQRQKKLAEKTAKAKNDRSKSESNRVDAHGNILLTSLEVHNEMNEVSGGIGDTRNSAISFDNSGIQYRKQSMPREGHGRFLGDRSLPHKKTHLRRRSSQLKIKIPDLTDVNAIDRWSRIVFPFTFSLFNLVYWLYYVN
T1 sequence (P18507 40-475): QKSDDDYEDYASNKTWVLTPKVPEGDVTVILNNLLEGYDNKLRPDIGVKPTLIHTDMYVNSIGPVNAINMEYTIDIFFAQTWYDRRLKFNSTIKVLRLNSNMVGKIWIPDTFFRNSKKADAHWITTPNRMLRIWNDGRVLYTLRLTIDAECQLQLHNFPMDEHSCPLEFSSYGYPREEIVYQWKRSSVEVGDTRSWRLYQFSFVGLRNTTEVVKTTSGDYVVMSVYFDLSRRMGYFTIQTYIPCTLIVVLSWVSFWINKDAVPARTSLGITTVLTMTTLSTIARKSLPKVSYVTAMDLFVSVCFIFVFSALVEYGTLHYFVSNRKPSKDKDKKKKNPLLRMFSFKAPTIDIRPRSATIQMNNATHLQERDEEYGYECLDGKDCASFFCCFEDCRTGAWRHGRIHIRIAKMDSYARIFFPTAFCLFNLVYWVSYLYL

For CC(C)(C)OC(=O)c1cc2c(cn1)[nH]c1ccccc12 [βCCt, β-carboline-3-carboxylate t-butyl ester], the “selectivity for A1 over the A5 subtype” value [1] is listed as over 110 fold, the “selectivity for GABAA1 over the A2 and A3 receptors” value [1] is listed as over 10 fold and the “% of GABA response, α5” value [2] is listed as 88±7%. The “effect on anxiolytic activity produced by chlordiazepoxide (5.0 mg/kg)” value ([3]; 5, 15 mg/kg i.p.) was “neither dose of βCCt (5, 15 mg/kg, i.p.) altered the anxiolytic activity”, the “number of closed arm entries” value ([3]; i.p. 5-60 mg/kg) was “significant reduction in performance only with the 60 mg/kg dose” and the “sedation in the plus maze” value ([4]; 60 mg/kg i.p., data not shown) was “marked sedative profile”. The “effect on anxiolytic activity produced by chlordiazepoxide (5.0 mg/kg)” value ([4]; 5, 15 mg/kg i.p.) was “neither dose of βCCt (5, 15 mg/kg, i.p.) altered the anxiolytic activity”, the “number of closed arm entries” value ([4]; i.p.) was “without effect” and the “locomotor activity, drug given alone” value [5] was “did not produce any intrinsic effects”. The “locomotor activity, drug given alone” value [6] was “did not produce any intrinsic effects”.

In the case of CCCOc1cc2c(cn1)[nH]c1ccccc12.Cl [3-PBC, 3-Propoxy-β-carboline hydrochloride], the IC50 [7] is listed as 0.011 µM, the “activity in observational studies vs saline controls” value [8] is listed as “inactive” and the “% of GABA response, α4” value [9] is listed as 129±3%. The “antagonism in zolpidem discrimination” value [10] was “surmountable antagonism”.

Reference: patent US20030176456A1, “Methods for reducing alcohol cravings in chronic alcoholics” (priority 2001, published 2003)
